Results: patent US12358921B2, “Antiviral heterocyclic compounds” (priority 2022, dated 2025)

What was measured:
[1] = tested on: hMPV A2 TN/94-49; assay: HMPV antiviral assay Method 2 (LLC-MK2 cells with CP-100-356, ATP-Lite); type: cell-based; conditions: hMPV A2 TN/94-49, LLC-MK2 cells, 4 μM CP-100-356, Method 2
How it was run: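 LLC-MK2 cells infected in suspension with hMPV A2 TN/94-49 at MOI 0.16, in serum-free OptiMEM with final 2 μg/mL TPCK-trypsin and 2 μM CP-100-356 (P-gp inhibitor). Compounds tested in duplicate, top 200 nM, 2.5-fold, 10 points; 7 days at 37 °C. ATP-Lite cell health normalised to controls; EC50 by four-parameter fit.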

[2] = tested on: HUMAN RSV-A (“LONG” STRAIN); assay: RSV-A assay (CPE, ATPlite) in Hep-2 cells; type: cell-based; conditions: human respiratory syncytial virus, 120 h, MOI 0.1, 5-day incubation
Text: Methods for RSV-A Assay Hep-2 cells, (originally derived from tumors grown in irradiated-cortisonised weanling rats that had been injected with epidermoid carcinoma tissue from the larynx of a person, but later found to be indistinguishable from HeLa cells by PCR DNA analysis), were used for the culturing of genotype A, “Long” strain RSV. Flasks were inoculated with RSV and viral stocks were collected once cytopathic effect (CPE) was greater than 90%. Viral stocks in 25% sucrose media were snap frozen using liquid nitrogen to increase viral stability. Viral stock titers were quantified by tissue culture infectious dose 50% (TCID50) using 8,000 cells per well and 3-fold viral dilutions across a 96-well plate, cultured for 4 days. Viral stock titers were also quantified by a plaque forming unit assay, as described elsewhere.
Following extensive parameter testing, the final assay is run as follows: Hep-2 cells are seeded into the inner 60 wells of a 96-well plate at 8,000 cells per well in a volume of 50 μL using Growth Media (DMEM without phenol red, 1% L-Glut, 1% Penn/Strep, 1% nonessential amino acids, 10% heat-inactivated FBS). 2-fold serial dilutions of control and test compounds are added to the wells in duplicate in a total volume of 25 μL. Viral stock is then added to the wells at a multiplicity of infection (MOI) of 0.1 in a volume of 25 μL, bringing the total volume of each well to 100 μL. The MOI is calculated using the PFU/mL, or TCID50 if unavailable. Each 96-well plate has a control column of 6 wells with cells and virus but no compound (negative control, max CPE), a column with cells but no compound or virus (positive control, minimum CPE), and a column with no cells or virus or compound (background plate/reagent control). The control wells with cells but no virus are given an additional 25 μL of growth media containing an equal quantity of sucrose as those wells receiving the viral stock in order to keep consistent in media and volume conditions. The outer wells of the plate are filled with 125 μL of moat media (DMEM, 1% Penn/Strep) to act as a thermal and evaporative moat around the test wells. Following a 5-day incubation period, the plates are read using ATPlite (50 uL added per well), which quantifies the amount of ATP (a measure of cell health) present in each well. Assay plates are read using the Envision luminometer. […] EC50 ranges are as follows: A<0.2 μM; B>0.2 μM.

Row | SMILES | EC50 [1] [nM] | EC50 [2] [nM]
1 | COc1cc(C(=O)NC[C@@](O)(c2cccc(F)n2)c2cc3c(c(-c4cc(Cl)c(F)cc4F)n2)OC[C@]3(C)C(N)=O)cc2cc(C3CC3)nn12 [Example 206] | < 200 | < 200
2 | C[C@]1(C(N)=O)COc2c1cc([C@@](O)(CNC(=O)c1cc(Cl)c3nn(C4CC4)cc3c1)c1ccccc1)nc2-c1cc(Cl)c(F)cc1F [Example 99] | < 200 | < 200
3 | COc1cc(C(=O)NCC(O)(c2cc3c(c(-c4cc(Cl)c(F)cc4F)n2)OC[C@]3(C)C(N)=O)c2ccc(Cl)s2)cc2cn(C3CC3)nc12 (some centres unmarked) [Example 472] | > 200 | < 200
4 | COc1cc(C(=O)NC[C@@](O)(c2ccncc2)c2cc3c(c(-c4cc(Cl)c(F)cc4F)n2)OC[C@]3(C)C(N)=O)cc2cn(C3CC3)nc12 [Example 152] | < 200 | < 200
5 | C[C@]1(C(N)=O)COc2c1cc([C@@](O)(CNC(=O)c1ccc3nc(C4CC4)oc3c1)c1ccccc1)nc2-c1cccc(Cl)c1Cl [Example 97] | < 200 | < 200
6 | COc1cc(C(=O)NC[C@@](O)(c2cc[nH]c(=O)c2)c2cc3c(c(-c4cc(Cl)c(F)cc4F)n2)OC[C@]3(C)C(N)=O)cc2cn(C3CC3)nc12 [Example 504] | > 200 | < 200
7 | COc1cc(C(=O)NC[C@@](O)(c2ccccc2)c2cc3c(c(-c4cc(C(F)(F)F)c(F)cc4F)n2)OC[C@]3(C)C(N)=O)cc2cn(C3CC3)nc12 [Example 302] | < 200 | < 200
8 | COc1cc(C(=O)NC[C@@](O)(c2ccccc2)c2cc3c(c(-c4cc(Cl)c(F)cc4F)n2)OC[C@]3(C)C(N)=O)cn2cc(C3CC3)nc12 [Example 115] | < 200 | < 200
9 | COc1cc(C(=O)NC[C@@](O)(c2ccccc2)c2cc3c(c(-c4cc(Cl)c(F)cc4F)n2)OC[C@]3(C)C(N)=O)cc2cc(Cl)c(F)nc12 [Example 342] | > 200 | < 200
10 | COc1cc(C(=O)NC[C@@](O)(c2ccnc(N)c2)c2cc3c(c(-c4cc(Cl)c(F)cc4F)n2)OC[C@]3(C)C(N)=O)cc2cn(C3CC3)nc12 [Example 484] | < 200 | < 200
11 | COc1cc(C(=O)NC[C@@](O)(c2ccc(S(C)(=O)=O)cc2)c2cc3c(c(-c4cc(Cl)c(F)cc4F)n2)OC[C@]3(C)C(N)=O)cc2cn(C3CC3)nc12 [Example 482] | > 200 | < 200
12 | COc1cc(C(=O)NC[C@@](O)(c2cccc(C(C)=O)c2)c2cc3c(c(-c4cccc(Cl)c4Cl)n2)OC[C@]3(C)C(N)=O)cc2cn(C3CC3)nc12 [Example 493] | < 200 | < 200
13 | COc1cc(C(=O)NC[C@@](O)(c2cccc(C#N)c2)c2cc3c(c(-c4cc(Cl)c(F)cc4F)n2)OC[C@]3(C)C(N)=O)cc2cn(C3CC3)nc12 [Example 488] | < 200 | < 200
14 | COc1cc(C(=O)NC[C@@](O)(c2cccc(F)c2)c2cc3c(c(-c4ccc5c(c4Cl)OC(F)(F)O5)n2)OC[C@]3(C)C(N)=O)cc2oc(C3CC3)nc12 [Example 286] | < 200 | < 200
15 | COc1cc(C(=O)NC[C@@](O)(c2ccccc2)c2cc3c(c(-c4cc(F)c(F)cc4F)n2)OC[C@]3(C)C(N)=O)cc2oc(C)nc12 [Example 193] | < 200 | < 200
16 | COc1cc(-c2nc([C@@](O)(CNC(=O)c3cc(OC)c4nn(C5(F)CC5)cc4c3)c3ccccc3)cc3c2OC[C@]3(C)C(N)=O)c(F)cc1F [Example 364] | > 200 | < 200
17 | COc1cc(C(=O)NC[C@@](O)(c2ccc(=O)[nH]c2)c2cc3c(c(-c4cc(Cl)c(F)cc4F)n2)OC[C@]3(C)C(N)=O)cc2cn(C3CC3)nc12 [Example 505] | > 200 | < 200

Row | SMILES | EC50 [1] [nM] | EC50 [2] [nM]
18 | C[C@]1(C(N)=O)COc2c1cc([C@@](O)(CNC(=O)c1ccc3nc(C4CC4)oc3c1)c1ccccc1)nc2-c1cc(C(F)(F)F)c(F)cc1F [Example 307] | > 200 | < 200
19 | COc1cc(C(=O)NC[C@@](O)(c2ccccc2)c2cc3c(c(-c4cc(C(F)F)c(F)cc4F)n2)OC[C@]3(C)C(N)=O)cc2cn(C(F)F)nc12 [Example 300] | < 200 | < 200
20 | [2H]C([2H])([2H])NC(=O)[C@@]1(C)COc2c1cc([C@@](O)(CNC(=O)c1cc(OC)c3nn(C4(F)CC4)cc3c1)c1ccccc1)nc2-c1cc(Cl)c(F)cc1F [Example 109] | < 200 | < 200
21 | COc1cc(C(=O)NC[C@@](O)(c2ccccc2)c2cc3c(c(-c4cc(Cl)c(F)cc4F)n2)OC[C@]3(C)C(N)=O)cc2cc(Cl)nnc12 [Example 113] | < 200 | < 200
22 | COc1cc(C(=O)NC[C@@](O)(c2cccc(F)c2)c2cc3c(c(-c4cc(F)c(F)cc4C(N)=O)n2)OC[C@]3(C)C(N)=O)cc2cn(C3(F)CC3)nc12 [Example 405] | > 200 | > 200
23 | COc1cc(C(=O)NC[C@@](O)(c2ccccc2)c2cc3c(c(-c4cccc5c4OCO5)n2)OC[C@]3(C)C(N)=O)cc2cn(C3(F)CC3)nc12 [Example 366] | > 200 | < 200
24 | COc1cc(C(=O)NC[C@@](O)(c2ccccc2)c2cc3c(c(-c4cccc(Cl)c4Cl)n2)OC[C@]3(C)C(N)=O)cc2oc(C)nc12 [Example 95] | < 200 | < 200
25 | COc1cc(C(=O)NC[C@@](O)(c2ccccc2)c2cc3c(c(-c4cccc(F)c4Cl)n2)OC[C@]3(C)C(N)=O)cc2cn(C3(F)CC3)nc12 [Example 368] | < 200 | < 200
26 | Cc1nc2c(OC(F)F)cc(C(=O)NC[C@](O)(c3cc4c(c(-c5cc(Cl)c(F)cc5F)n3)OC[C@]4(C)C(N)=O)c3ccccc3F)cc2cc1Br [Example 139] | > 200 | < 200
27 | COc1cc(C(=O)NC[C@@](O)(c2ccccc2)c2cc3c(c(-c4cc(C(F)(F)F)c(F)cc4F)n2)OC[C@]3(C)C(N)=O)cc2cn(C(F)F)nc12 [Example 304] | < 200 | < 200
28 | COc1cc([C@](O)(CNC(=O)c2cc(OC)c3nn(C4CC4)cc3c2)c2cc3c(c(-c4cccc(Cl)c4Cl)n2)OC[C@]3(C)C(N)=O)cc(OC)n1 [Example 497] | < 200 | < 200
29 | COc1cc(C(=O)NC[C@@](O)(c2cccc(F)n2)c2cc3c(c(-c4cc(Cl)c(F)cc4F)n2)OC[C@]3(C)C(N)=O)cc2cn(C3(F)CC3)nc12 [Example 204] | < 200 | < 200
30 | C[C@]1(C(N)=O)COc2c1cc([C@@](O)(CNC(=O)c1cc(OC3CC3)c3ncc(Cl)cc3c1)c1ccccc1)nc2-c1ccc(F)c(Cl)c1Cl [Example 313] | < 200 | < 200
31 | COc1cc(C(=O)NC[C@@](O)(c2cccc(F)c2)c2cc3c(c(-c4cccc(Cl)c4Cl)n2)OC[C@]3(C)C(N)=O)cn2cc(C3CC3)nc12 [Example 337] | < 200 | < 200
32 | COc1cc(C(=O)NC[C@@](O)(c2ccccc2)c2cc3c(c(-c4ccc(F)c(F)c4Cl)n2)OC[C@]3(C)C(N)=O)cc2cn(C3(F)CC3)nc12 [Example 370] | < 200 | < 200
33 | COc1cc(C(=O)NC[C@@](O)(c2cnccn2)c2cc3c(c(-c4cc(Cl)c(F)cc4F)n2)OC[C@]3(C)C(N)=O)cc2cn(C3CC3)nc12 [Example 487] | < 200 | < 200
34 | COc1cc(C(=O)NC[C@@](O)(c2cccc(F)n2)c2cc3c(c(-c4cc(Cl)c(F)cc4F)n2)OC[C@]3(C)C(N)=O)cc2cn(C3CC3)nc12 [Example 203] | < 200 | < 200
